From patent publication US20060276406A1, “Methods of treating hepatitis C virus” (Schering Corporation, priority 2005, published 2006)

What was measured:
[1] = Solubility in water / aqueous systems; format: physicochemical
[2] = Treatment study: plasma Cmin after oral dosing for 14 days in HCV genotype-1 patients; format: in vivo, human; conditions: for Plasma Mean Cmin at 0 hour (trough) predose: 14 days, preliminary mean
Method: FIG. 2 is a box plot showing trough plasma levels of a compound of Formula Ia measured on day 14 at various times when a compound of Formula Ia is administered twice per day (bid, left box) and when a compound of Formula Ia is administered three times per day (tid, right box). It has been determined that metabolism of compounds of the present invention is also affected by the patient's circadian rhythm. As shown in FIG. 2 (right hand box), plasma levels of the drug are highest in the morning, when measured 8 hours after the previous dose and before the morning dose is administered.

solubility [1]: ~600 µg/mL
Plasma Mean Cmin at 0 hour (trough) predose ([2]; 100 mg BID oral, n = 12, HCV genotype-1 patients): Cmin = 12.7 ng/ml
Plasma Mean Cmin at 0 hour (trough) predose ([2]; 200 mg BID oral, n = 12, HCV genotype-1 patients): Cmin = 46.3 ng/ml
Plasma Mean Cmin at 0 hour (trough) predose ([2]; 400 mg BID oral, n = 11, HCV genotype-1 patients): Cmin = 48.8 ng/ml
Plasma Mean Cmin at 0 hour (trough) predose ([2]; 400 mg TID oral, n = 10, HCV genotype-1 patients): Cmin = 183 ng/ml
average Cmin plasma concentration maintained ([2]; all dosing regimens of Table 1): ≥ 10 ng/mL
Structure (SMILES): CC(C)(C)NC(=O)N[C@H](C(=O)N1CC2C([C@H]1C(=O)NC(CC1CCC1)C(=O)C(N)=O)C2(C)C)C(C)(C)C (stereo partly drawn) [Formula Ia, (1R,5S)-N-[3-Amino-1-(Cyclobutylmethyl)-2,3-Dioxopropyl]-3-[2(S)-[[[(1,1-Dimethylethyl)Amino]Carbonyl]Amino]-3,3-Dimethyl-1-Oxobutyl]-6,6-Dimethyl-3-Azabicyclo[3.1.0]Hexan-2(S)-Carboxamide]
